Experimental data from ChEMBL document CHEMBL1201862, “PubChem BioAssay data set” (2004).
Activity calls are given as the source filed them.

Assays:
[1] = Luminescence Cell-Based Dose Retest to Confirm Inhibitors of Cancer Stem Cells. [Related pubchem assays (depositor defined):AID2717, AID2721]; assay type: functional; settings: Homo sapiens
[2] = A Cell Based Secondary Assay to Explore Cytotoxicity in HepG2 Cells of Compounds that Modulate Mycobacterium tuberculosis in Media Containing Glycerol versus Media without Glycerol (2).; assay type: functional
[3] = A Cell Based Secondary Assay to Explore Cytotoxicity in THP-1 Cells of Compounds that Modulate Mycobacterium tuberculosis in Media Containing Glycerol versus Media without Glycerol (2).; assay type: functional
[4] = Vero cell cytotoxicity, cytotoxicity control for M. tuberculosis inhibitor project, purified and synthesized samples, set 3 (AID 504684); assay type: functional
HEK293 = assay: inhibitors of LMP1-driven NF-kB reporter, dose response, cell-based, HEK293, luciferase, cherry-pick (AID 588343); assay type: functional; settings: Homo sapiens
[5] = molecular target: Latent membrane protein 1 (Human herpesvirus 4 (strain B95-8), UniProt P03230); assay: TES1-eGFP NF-kB reporter inhibition versus Tet-On dsRED, dose response, selectivity assay for LMP1 NF-kB inhibitor project, imaging, HEK293T, dual-color eGFP/dsRED, cherry-picks (AID 588398); assay type: functional, cell-based
[6] = molecular target: Tyrosine-protein kinase receptor TYRO3 (Homo sapiens, UniProt Q06418); assay type: functional;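 further: TYRO3 value obtained as one member of a kinome-wide profiling panel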
[7] = molecular target: Proto-oncogene tyrosine-protein kinase receptor Ret (Homo sapiens, UniProt P07949); assay type: functional;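 further: measured within a kinome-wide profiling panel, RET as the panel member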
[8] = molecular target: Dual specificity tyrosine-phosphorylation-regulated kinase 1B (Homo sapiens, UniProt Q9Y463); assay: Navigating the Kinome. Panel member name: DYRK1B; assay type: functional
INS1 [9] = assay: inhibitors of cytokine-induced nitrite release, dose response, cell-based, Griess absorbance, INS-1E, dry powder, set 2 (AID 488868); assay type: functional; settings: Rattus norvegicus
INS1 [10] = assay: caspase-3/7 inhibition in cytokine-treated INS-1E, dose response, beta-cell apoptosis inhibitor project, cell-based, caspase luminescence, dry powder (AID 488848); assay type: functional; settings: Rattus norvegicus
INS1 [11] = assay: protection of INS-1E cells from cytokine death, dose response, ATP luminescence, dry powder (AID 488844); assay type: functional, cell-based; settings: Rattus norvegicus
INS1 [12] = assay: protection from cytokine-induced mitochondrial depolarization, dose response, cell-based, INS-1E, JC-1 fluorescence ratio, dry powder (AID 488931); assay type: functional; settings: Rattus norvegicus
[13] = molecular target: Mitogen-activated protein kinase 8 (Homo sapiens, UniProt P45983); assay type: functional;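 further: value comes from one member of a kinome-wide kinase profiling panel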
[14] = molecular target: Cyclin-dependent kinase 5 (Homo sapiens, UniProt Q00535); assay type: functional;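 further: CDK5 measured as one member of a kinase profiling panel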
[15] = molecular target: Platelet-derived growth factor receptor alpha (Homo sapiens, UniProt P16234); assay: Navigating the Kinome. Panel member name: PDGFRA; assay type: functional
[16] = molecular target: Dual specificity protein kinase CLK4 (Homo sapiens, UniProt Q9HAZ1); assay type: functional
[17] = molecular target: Glycogen synthase kinase-3 beta (Homo sapiens, UniProt P49841); assay: Inhibition of Human GSK-3 beta Activity Measured in Biochemical System Using Microfluidics - 2063-05_Inhibitor_Dose_DryPowder_Activity_Set2. [Related pubchem assays (depositor defined):AID2709]
[18] = molecular target: Glycogen synthase kinase-3 alpha (Homo sapiens, UniProt P49840); assay: Inhibition of Human GSK-3 alpha Activity Measured in Biochemical System Using Microfluidics - 2063-06_Inhibitor_Dose_DryPowder_Activity_Set2. [Related pubchem assays (depositor defined):AID2709]
[19] = molecular target: Protein kinase C theta type (Homo sapiens, UniProt Q04759); assay: Navigating the Kinome. Panel member name: PRKCQ; assay type: functional
[20] = molecular target: Dual specificity mitogen-activated protein kinase kinase 1 (Homo sapiens, UniProt Q02750); assay: Navigating the Kinome. Panel member name: MAP2K1; assay type: functional
Aurora kinase A = Aurora kinase A (Homo sapiens, UniProt O14965); assay type: functional;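 further: value from the Navigating the Kinome kinase panel profiling, panel entry STK6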
[21] = molecular target: Dual specificity tyrosine-phosphorylation-regulated kinase 1A (Homo sapiens, UniProt Q13627); assay type: functional;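 further: measured against DYRK1A as one member of a broad kinome profiling panel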
[22] = molecular target: cAMP-dependent protein kinase catalytic subunit alpha (Homo sapiens, UniProt P17612); assay type: functional
[23] = molecular target: Cyclin-dependent kinase 9 (Homo sapiens, UniProt P50750); assay type: functional;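 further: value from the CDK9 entry of a kinome-spanning kinase panel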
[24] = molecular target: Macrophage colony-stimulating factor 1 receptor (Homo sapiens, UniProt P07333); assay type: functional;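 further: value comes from the Navigating the Kinome screening panel, CSF1R member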
[25] = molecular target: Cyclin-dependent kinase 19 (Homo sapiens, UniProt Q9BWU1); assay: Navigating the Kinome. Panel member name: CDC2L6; assay type: functional
[26] = molecular target: Vascular endothelial growth factor receptor 2 (Homo sapiens, UniProt P35968); assay type: functional
[27] = molecular target: T1, Sentrin-specific protease 8 (Homo sapiens, UniProt Q96LD8); assay: SENP8 protease inhibitors, SAR follow-up, biochemical, luminescence, set 2 (AID 588601); assay type: functional
T1 sequence (Q96LD8 whole entry): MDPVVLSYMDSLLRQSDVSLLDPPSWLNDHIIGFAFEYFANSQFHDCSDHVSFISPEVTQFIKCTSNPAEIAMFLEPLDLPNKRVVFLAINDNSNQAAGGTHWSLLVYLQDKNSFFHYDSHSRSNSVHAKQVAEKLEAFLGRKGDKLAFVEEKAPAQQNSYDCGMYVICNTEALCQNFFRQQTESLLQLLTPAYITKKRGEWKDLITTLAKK

Caspase-3 = molecular target: T2, Caspase-3 (Homo sapiens, UniProt P42574); assay: caspase-3 inhibitors as off-family protease, SAR follow-up, selectivity assay for SENP protease inhibitor project, biochemical, luminescence, set 2 (AID 588599); assay type: functional
T2 sequence (P42574 whole entry): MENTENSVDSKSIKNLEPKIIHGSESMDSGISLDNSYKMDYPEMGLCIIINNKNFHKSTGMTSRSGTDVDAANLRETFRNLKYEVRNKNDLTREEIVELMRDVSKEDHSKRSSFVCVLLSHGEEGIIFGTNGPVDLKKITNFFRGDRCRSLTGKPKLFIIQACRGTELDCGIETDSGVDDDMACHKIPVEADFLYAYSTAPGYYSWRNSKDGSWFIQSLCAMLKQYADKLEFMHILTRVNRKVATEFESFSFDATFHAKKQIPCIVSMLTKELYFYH

[28] = molecular target: T3, Sentrin-specific protease 7 (Homo sapiens, UniProt Q9BQF6); assay: SENP7 protease inhibitors, SAR follow-up, biochemical, luminescence, set 2 (AID 588600); assay type: functional
T3 sequence (Q9BQF6 whole entry): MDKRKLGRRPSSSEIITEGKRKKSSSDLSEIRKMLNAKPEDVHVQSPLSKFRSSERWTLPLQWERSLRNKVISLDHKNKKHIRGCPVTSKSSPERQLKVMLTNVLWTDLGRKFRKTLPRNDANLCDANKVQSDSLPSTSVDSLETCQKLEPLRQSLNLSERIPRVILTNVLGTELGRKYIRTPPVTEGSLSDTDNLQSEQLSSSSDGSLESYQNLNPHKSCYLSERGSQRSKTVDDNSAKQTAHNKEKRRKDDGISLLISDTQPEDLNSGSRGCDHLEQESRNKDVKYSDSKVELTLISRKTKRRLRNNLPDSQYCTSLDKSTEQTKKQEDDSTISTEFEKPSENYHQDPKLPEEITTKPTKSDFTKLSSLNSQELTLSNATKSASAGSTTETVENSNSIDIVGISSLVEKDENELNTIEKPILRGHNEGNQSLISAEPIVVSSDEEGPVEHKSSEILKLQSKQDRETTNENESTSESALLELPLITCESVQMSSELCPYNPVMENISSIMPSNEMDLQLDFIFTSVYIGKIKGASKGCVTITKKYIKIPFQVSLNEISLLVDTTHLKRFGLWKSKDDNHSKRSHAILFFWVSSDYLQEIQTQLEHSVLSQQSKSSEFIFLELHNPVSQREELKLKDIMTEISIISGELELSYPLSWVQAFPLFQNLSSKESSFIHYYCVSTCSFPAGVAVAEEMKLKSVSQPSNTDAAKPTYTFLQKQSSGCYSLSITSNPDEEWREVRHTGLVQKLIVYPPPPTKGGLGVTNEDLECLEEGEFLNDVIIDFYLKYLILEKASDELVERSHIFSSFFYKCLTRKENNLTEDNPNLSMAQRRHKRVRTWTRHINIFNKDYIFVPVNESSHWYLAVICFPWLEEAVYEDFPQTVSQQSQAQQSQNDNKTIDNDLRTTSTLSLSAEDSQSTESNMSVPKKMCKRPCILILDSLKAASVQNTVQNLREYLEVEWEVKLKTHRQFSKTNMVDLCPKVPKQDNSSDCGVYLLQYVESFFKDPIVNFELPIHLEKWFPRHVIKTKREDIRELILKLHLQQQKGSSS

[29] = molecular target: T4, Sentrin-specific protease 6 (Homo sapiens, UniProt Q9GZR1); assay: SENP6 protease inhibitors, SAR follow-up, biochemical, luminescence, set 2 (AID 588598); assay type: functional
T4 sequence (Q9GZR1 whole entry): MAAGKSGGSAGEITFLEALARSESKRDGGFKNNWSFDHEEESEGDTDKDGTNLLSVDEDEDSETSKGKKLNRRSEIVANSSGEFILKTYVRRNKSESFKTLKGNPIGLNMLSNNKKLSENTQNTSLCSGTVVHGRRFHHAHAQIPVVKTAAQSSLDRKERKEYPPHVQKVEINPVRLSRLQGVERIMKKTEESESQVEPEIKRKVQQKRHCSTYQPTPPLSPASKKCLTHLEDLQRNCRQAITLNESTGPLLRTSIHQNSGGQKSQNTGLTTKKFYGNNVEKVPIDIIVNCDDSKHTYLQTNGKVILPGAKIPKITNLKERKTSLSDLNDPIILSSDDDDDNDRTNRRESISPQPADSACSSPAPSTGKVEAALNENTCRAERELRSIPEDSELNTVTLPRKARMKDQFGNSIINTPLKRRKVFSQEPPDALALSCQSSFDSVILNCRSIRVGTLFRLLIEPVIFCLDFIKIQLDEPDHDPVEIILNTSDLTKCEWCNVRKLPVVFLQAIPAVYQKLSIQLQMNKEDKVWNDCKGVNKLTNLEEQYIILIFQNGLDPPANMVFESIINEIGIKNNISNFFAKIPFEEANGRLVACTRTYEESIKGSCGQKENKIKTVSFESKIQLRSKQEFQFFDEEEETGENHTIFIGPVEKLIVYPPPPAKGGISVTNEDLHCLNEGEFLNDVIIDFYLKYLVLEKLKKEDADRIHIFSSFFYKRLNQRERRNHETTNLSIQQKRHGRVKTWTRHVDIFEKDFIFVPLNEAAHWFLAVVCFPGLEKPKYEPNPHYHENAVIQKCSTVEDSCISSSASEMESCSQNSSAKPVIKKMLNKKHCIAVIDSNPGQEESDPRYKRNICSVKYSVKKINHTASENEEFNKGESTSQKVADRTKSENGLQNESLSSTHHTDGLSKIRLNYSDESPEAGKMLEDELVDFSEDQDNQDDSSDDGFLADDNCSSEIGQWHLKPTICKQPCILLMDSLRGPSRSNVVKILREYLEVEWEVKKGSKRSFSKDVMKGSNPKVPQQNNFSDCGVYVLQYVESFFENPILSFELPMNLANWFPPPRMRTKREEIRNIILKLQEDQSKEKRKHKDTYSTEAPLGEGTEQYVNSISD

Candida albicans [30] = assay: growth inhibition of azole-resistant C. albicans, dose response, CaCi-8 strain, Alamar Blue, dry powder, set 3 (AID 488905); assay type: functional, organism-based
Candida albicans [31] = assay: reversal of fluconazole resistance in C. albicans, dose response, CaCi-2 strain, Alamar Blue, dry powder, set 3 (AID 488907); assay type: functional, organism-based

Sequence of Dual specificity tyrosine-phosphorylation-regulated kinase 1B (Q9Y463 whole entry): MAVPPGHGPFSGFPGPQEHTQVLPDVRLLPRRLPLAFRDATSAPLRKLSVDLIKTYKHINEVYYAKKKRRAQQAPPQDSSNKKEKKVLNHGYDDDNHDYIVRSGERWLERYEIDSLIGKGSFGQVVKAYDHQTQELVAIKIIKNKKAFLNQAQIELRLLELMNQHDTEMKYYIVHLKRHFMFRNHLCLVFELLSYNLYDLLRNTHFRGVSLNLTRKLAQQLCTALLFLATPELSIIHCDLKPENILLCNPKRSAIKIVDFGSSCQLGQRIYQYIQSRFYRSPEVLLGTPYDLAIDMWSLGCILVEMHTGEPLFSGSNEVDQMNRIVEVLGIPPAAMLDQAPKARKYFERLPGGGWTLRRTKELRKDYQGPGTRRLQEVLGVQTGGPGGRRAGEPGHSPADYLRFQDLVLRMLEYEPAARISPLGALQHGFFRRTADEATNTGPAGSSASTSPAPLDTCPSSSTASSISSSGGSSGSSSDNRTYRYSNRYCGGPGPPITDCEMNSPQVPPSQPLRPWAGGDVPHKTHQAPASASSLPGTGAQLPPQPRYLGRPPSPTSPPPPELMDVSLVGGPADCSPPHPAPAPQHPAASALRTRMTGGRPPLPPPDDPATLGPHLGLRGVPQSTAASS
Sequence of Dual specificity protein kinase CLK4 (Q9HAZ1 whole entry): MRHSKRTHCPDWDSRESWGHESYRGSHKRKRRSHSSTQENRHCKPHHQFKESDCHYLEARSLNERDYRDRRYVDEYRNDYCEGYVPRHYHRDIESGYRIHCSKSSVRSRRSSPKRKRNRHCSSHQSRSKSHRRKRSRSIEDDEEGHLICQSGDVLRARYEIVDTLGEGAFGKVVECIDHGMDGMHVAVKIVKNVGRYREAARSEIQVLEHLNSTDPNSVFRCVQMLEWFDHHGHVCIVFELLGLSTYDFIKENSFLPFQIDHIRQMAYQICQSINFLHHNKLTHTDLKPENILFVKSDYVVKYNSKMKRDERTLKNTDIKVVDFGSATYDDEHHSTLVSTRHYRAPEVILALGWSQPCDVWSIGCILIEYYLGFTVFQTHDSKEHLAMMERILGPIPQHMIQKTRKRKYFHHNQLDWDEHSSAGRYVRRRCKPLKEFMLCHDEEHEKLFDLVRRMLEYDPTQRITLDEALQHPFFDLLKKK
Sequence of Cyclin-dependent kinase 9 (P50750 whole entry): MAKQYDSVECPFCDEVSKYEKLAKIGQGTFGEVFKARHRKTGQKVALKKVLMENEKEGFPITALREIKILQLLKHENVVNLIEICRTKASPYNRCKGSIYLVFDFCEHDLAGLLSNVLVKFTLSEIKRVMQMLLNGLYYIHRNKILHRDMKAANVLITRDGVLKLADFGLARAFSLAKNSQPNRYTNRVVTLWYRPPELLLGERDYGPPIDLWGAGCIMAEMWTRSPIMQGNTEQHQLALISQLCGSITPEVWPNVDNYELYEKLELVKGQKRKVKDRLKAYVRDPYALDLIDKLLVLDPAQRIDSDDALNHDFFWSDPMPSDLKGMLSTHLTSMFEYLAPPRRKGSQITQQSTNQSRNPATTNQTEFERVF
Sequence of Proto-oncogene tyrosine-protein kinase receptor Ret (P07949 whole entry): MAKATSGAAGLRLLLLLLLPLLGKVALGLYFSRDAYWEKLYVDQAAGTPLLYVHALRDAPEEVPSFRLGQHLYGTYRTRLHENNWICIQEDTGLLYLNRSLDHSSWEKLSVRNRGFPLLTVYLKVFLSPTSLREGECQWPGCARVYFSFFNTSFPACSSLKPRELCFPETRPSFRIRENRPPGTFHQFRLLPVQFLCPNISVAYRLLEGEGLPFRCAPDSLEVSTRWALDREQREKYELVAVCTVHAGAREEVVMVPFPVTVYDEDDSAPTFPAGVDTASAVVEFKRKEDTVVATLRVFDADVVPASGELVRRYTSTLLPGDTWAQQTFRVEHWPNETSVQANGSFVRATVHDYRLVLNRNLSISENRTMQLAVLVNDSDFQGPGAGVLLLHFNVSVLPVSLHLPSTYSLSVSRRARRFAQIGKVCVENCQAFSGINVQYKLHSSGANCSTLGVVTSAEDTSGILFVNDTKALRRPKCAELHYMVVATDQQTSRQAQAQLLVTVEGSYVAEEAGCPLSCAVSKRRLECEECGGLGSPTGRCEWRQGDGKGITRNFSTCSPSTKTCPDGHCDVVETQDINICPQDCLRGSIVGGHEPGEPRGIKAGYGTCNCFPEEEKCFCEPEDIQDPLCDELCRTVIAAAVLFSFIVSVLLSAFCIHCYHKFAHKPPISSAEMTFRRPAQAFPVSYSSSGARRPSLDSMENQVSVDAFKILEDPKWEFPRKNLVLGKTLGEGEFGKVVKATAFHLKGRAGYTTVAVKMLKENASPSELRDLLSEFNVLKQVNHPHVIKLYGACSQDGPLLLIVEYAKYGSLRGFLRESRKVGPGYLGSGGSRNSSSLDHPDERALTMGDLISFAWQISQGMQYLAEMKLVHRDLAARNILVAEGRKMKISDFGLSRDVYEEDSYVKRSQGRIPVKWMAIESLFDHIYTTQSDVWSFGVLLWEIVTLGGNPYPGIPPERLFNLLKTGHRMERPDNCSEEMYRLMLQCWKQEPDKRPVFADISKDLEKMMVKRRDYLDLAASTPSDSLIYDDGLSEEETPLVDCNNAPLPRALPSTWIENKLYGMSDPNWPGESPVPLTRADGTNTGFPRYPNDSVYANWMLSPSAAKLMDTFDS
Sequence of Cyclin-dependent kinase 19 (Q9BWU1 whole entry): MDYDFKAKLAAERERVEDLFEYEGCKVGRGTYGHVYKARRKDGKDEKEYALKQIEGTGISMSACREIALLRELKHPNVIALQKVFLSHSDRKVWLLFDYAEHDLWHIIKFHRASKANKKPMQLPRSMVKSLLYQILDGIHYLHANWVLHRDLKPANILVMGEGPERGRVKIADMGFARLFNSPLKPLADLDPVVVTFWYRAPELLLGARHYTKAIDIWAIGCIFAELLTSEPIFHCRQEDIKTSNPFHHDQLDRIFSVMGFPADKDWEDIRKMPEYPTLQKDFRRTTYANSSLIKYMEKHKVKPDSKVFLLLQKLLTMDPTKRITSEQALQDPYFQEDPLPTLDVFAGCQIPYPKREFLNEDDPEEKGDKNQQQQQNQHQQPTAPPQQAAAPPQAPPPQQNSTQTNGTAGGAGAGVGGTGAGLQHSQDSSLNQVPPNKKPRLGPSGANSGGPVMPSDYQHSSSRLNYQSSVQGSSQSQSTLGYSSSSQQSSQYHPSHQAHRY
Sequence of Macrophage colony-stimulating factor 1 receptor (P07333 whole entry): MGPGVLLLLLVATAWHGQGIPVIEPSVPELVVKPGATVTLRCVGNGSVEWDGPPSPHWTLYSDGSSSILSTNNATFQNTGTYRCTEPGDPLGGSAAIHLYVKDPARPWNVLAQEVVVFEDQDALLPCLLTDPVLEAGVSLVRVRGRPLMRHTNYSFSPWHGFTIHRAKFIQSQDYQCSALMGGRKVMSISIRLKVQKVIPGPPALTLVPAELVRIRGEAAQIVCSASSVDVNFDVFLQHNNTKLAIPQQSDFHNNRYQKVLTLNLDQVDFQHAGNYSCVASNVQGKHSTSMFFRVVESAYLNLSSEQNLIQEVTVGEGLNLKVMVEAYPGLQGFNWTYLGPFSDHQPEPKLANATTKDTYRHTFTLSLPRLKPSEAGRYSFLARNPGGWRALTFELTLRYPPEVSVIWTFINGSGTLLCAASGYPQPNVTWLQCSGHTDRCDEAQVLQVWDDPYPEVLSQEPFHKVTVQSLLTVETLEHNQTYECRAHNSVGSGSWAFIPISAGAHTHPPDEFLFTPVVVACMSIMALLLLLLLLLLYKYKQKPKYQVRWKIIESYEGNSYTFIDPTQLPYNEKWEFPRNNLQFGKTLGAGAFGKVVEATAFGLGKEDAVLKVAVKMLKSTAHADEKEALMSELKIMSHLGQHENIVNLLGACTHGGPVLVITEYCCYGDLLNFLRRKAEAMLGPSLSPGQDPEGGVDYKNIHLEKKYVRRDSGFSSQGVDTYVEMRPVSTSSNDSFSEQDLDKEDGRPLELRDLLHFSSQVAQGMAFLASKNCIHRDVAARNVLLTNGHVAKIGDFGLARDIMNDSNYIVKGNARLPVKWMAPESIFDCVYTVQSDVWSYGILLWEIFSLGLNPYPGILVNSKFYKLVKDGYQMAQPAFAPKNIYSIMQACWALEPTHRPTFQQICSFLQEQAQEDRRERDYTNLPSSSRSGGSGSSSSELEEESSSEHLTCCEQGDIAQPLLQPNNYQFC
Sequence of Mitogen-activated protein kinase 8 (P45983 whole entry): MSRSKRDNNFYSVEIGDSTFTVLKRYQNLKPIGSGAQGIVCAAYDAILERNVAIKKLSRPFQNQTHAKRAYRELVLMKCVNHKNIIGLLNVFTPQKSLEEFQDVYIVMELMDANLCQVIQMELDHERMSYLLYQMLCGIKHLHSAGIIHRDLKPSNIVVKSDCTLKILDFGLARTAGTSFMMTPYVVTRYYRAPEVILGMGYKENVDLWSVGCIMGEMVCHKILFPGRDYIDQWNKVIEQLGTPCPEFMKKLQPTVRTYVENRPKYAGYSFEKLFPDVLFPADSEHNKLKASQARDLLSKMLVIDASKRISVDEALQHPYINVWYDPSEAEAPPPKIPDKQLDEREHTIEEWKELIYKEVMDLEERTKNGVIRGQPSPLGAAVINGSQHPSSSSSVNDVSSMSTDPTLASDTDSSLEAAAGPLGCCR
Sequence of Aurora kinase A (O14965 whole entry): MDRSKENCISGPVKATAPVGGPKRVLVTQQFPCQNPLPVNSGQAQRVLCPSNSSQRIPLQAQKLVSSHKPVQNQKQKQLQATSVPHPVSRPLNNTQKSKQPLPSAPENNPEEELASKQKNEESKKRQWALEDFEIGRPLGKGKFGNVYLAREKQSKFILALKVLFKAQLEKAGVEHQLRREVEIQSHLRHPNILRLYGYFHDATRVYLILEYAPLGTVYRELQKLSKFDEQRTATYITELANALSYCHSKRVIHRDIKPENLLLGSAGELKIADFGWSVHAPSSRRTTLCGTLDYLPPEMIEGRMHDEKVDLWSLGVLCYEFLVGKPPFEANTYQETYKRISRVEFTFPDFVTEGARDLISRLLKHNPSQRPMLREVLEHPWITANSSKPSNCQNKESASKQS

S=c1[nH]cnc2nc[nH]c12 [MERCAPTOPURINE]
active: AC50 [1] 0.561 µM | CC50 [2] 5.55 µM | CC50 [3] 30.4 µM | CC50 [4] 76.5 µM

c1ccc(C2c3[nH]c4ccccc4c3CCN2Cc2cccn2-c2ccccn2)nc1 (stereo unspecified)
active: AC50 (HEK293) 110 µM | AC50 [5] 29.8 µM

O=C1NS(=O)(=O)c2cccc(Cl)c21
active: Ki [6] 31.6 µM | Ki [7] 100 µM | Ki [8] 50.1 µM

Cc1ccc(S(=O)(=O)N(C)C[C@@H]2Oc3c(NC(=O)Nc4ccc(F)cc4)cccc3C(=O)N([C@@H](C)CO)C[C@H]2C)cc1
active: AC50 (INS1 [9]) 41 µM | AC50 (INS1 [10]) 27.4 µM | AC50 (INS1 [11]) 28.7 µM | AC50 (INS1 [12]) 83.3 µM

Cc1[nH]c(=O)oc(=O)c1-c1ccccc1
active: Ki [13] 79.4 µM | Ki [14] 63.1 µM | Ki [15] 63.1 µM | Ki [16] 20 µM

CN(C)Cc1c(C(=O)N/N=C/c2ccncc2)nnn1-c1nonc1N
active: AC50 [17] 0.255 µM | AC50 [18] 0.597 µM

NC(=O)c1cnn2c(-c3ccccc3)ccnc12
inactive: Ki [19] > 100 µM | Ki (Aurora kinase A) > 63.1 µM | Ki [21] > 79.4 µM | Ki [22] > 50.1 µM | Ki [23] > 63.1 µM | Ki [24] > 100 µM | Ki [25] > 100 µM | Ki [26] > 100 µM
active: Ki [20] 50.1 µM | Ki [8] 15.8 µM | Ki [16] 3.98 µM

COc1ccc(Br)c(C(=O)Nc2nc3ccc(C)cc3s2)c1
active: IC50 [27] 1.78 µM | IC50 (Caspase-3) 3.57 µM | IC50 [28] 2.13 µM | IC50 [29] 2.02 µM

O=C(c1cccc(Cl)c1)N1CCN(c2ccccn2)CC1
active: AC50 (Candida albicans [30]) < 0.195 µM | AC50 (Candida albicans [31]) 0.073 µM
